Source: PubChem BioAssay AID179 (DTP/NCI, 2004)
pEC50, pIC50: −log10 of the molar value. Where “and” joins values, the source holds several entries; their conditions need not be identical. Equal values may be shown once. Calls of active or inactive are those of the source.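 Rule for the calls: active = compounds giving half or more protection of infected cells from virus-caused growth loss, again on retest; inactive = the rest.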 Where a SMILES comes first, the peptide text is derived from it. [ ]: non-standard residue; d: D form. The star is where a group is joined. Phe(4-NO2) = N[CH](Cc1ccc([N+](=O)[O-])cc1)C(=O)O; Boc = CC(C)(C)OC(=O)*

System: CEM cells HIV-1 protection, formazan growth assay
Experiment: NCI AIDS Antiviral Assay
Conditions: for pIC50: measured here: growth of uninfected CEM cells
In short: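 Steps: treat uninfected and HIV-1-infected human CEM cells at five drug levels; quantify growth by soluble formazan; retest any compound reaching 50% protection; classify actives from the retest.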

CCNc1cc2oc(=O)cc(C)c2cc1C
pEC50: < 4.48 | pIC50: < 4.48

O=C1NC2(NC(=O)C1=O)Nc1ccccc1S2
pEC50: < 4.54 | pIC50: < 4.54

CCCc1nc(NC#N)nc(C(=O)Nc2ccccc2)c1CC
pEC50: < 3.39 | pIC50: < 3.39

CCOC(=O)c1ccc(NC(=O)O/N=C(/Cl)C(C)C)cc1
pEC50: < 3.70 | pIC50: 4.98

CCSC1=C(C#N)C2(CCCCC2)C2=C(CC(C)(C)CC2=O)N1
pEC50: < 3.70 | pIC50: < 3.70

O=c1[nH]nnc2ccccc12
pEC50: < 3.61 | pIC50: < 3.61

O=S(=O)(Nc1nc2ccccc2n1S(=O)(=O)c1ccccc1)c1ccccc1
pEC50: 4.09 | pIC50: 4.01

NS(=O)(=O)c1ccc(NC(=O)C2C(=O)C(=O)N(c3ccc(S(N)(=O)=O)cc3)C2=O)cc1 (stereo not drawn)
outcome: inactive

CSc1nc2c(=S)[nH]c(=S)[nH]c2s1
pEC50: < 3.98 | pIC50: < 3.98

Cc1cccc(C)c1NC(=S)N/C=C(\C#N)C(N)=O
pEC50: < 3.70 | pIC50: < 3.70

O=S(=O)(c1cc(Cl)ccc1Cl)N1CCN(S(=O)(=O)c2cc(Cl)ccc2Cl)CC1
pEC50: < 3.70 | pIC50: < 3.70

Cc1c(/C=N/NC(=O)c2ccccc2)c(=O)n(-c2ccccc2)n1C
pEC50: < 3.70 | pIC50: < 3.70

O=C(O)[C@@H]1CSC(c2ccc(C(F)(F)F)cc2)N1 (stereo partly drawn)
pEC50: < 3.70 | pIC50: < 3.70

C=C(CCCO)[C@@H]1CC[C@](C)(O)[C@H]1C
outcome: inactive

O=C1Nc2cnc(Cl)nc2Nc2ccccc21
pEC50: < 4.12 | pIC50: < 4.12

CC(=O)OCC(OC(C)=O)C(OC(C)=O)C(OC(C)=O)C(OC(C)=O)C(OC(C)=O)c1nc2ccccc2[nH]1 (stereo not drawn)
pEC50: < 3.70 | pIC50: < 3.70

COc1c2occc2c(OC)c2c(=O)c(S(=O)(=O)NC(=O)Nc3ccc(Cl)cc3)coc12
pEC50: < 3.70 | pIC50: 4.01

Cc1cn(C(C)OCCN2C(=O)c3ccccc3C2=O)c(=O)[nH]c1=O (stereo not drawn)
pEC50: < 3.70 | pIC50: < 3.70

CC(C)c1cc(C(=O)[O-])c(O)c(C(C)C)c1.CC(C)c1cc(C(=O)[O-])c(O)c(C(C)C)c1.CC(C)c1cc(C(=O)[O-])c(O)c(C(C)C)c1.CC(C)c1cc(C(=O)[O-])c(O)c(C(C)C)c1.CC(C)c1cc(C(=O)[O-])c(O)c(C(C)C)c1.CC(C)c1cc(C(=O)[O-])c(O)c(C(C)C)c1.[Cu+2].[Mn+2].[Mn+2]
pEC50: < 4.67 | pIC50: 4.97

COc1cc(O)c2c(c1O)C(=O)c1cc(C)ncc1C2=O
outcome: inactive

C[C@]12CC[C@H](O)CC1=CC[C@@H]1C2CC[C@]2(C)NC(=O)C(C#N)CC12 (stereo partly drawn)
outcome: inactive

CCOC(=O)C(C)NC(=O)N(C)C12CC3CC(CC(C3)C1)C2 (stereo not drawn)
pEC50: < 3.70 | pIC50: 3.82

O=c1[nH]c(=O)n(C2CC(O)C(CO)O2)c2nc3ccc4ccccc4c3nc12 (stereo not drawn)
pEC50: < 4.00 | pIC50: 4.88

NC(=O)C12C(=O)NC(=O)C1(C(=O)O)C2C1CCCCC1 (stereo not drawn)
outcome: inactive

Cn1c2c(c(=O)n(C)c1=O)CN(Cc1ccccc1)CN2
pEC50: < 3.70 | pIC50: < 3.70

CC(=O)/C(=C/N1CC(=O)NC1=S)C(=O)Nc1ccc([N+](=O)[O-])cc1
pEC50: < 3.70 | pIC50: 3.81

Cc1cc(C)nc(NS(=O)(=O)c2ccc(Nc3c4ccccc4nc4c(C(=O)Nc5ccc(S(N)(=O)=O)cc5)cccc34)cc2)n1
pEC50: < 3.84 | pIC50: < 3.84

CSc1nc(NC(=O)c2ccc([N+](=O)[O-])cc2)c(C(=O)NC(C)C)s1
pEC50: < 3.70 | pIC50: 3.86

Cc1cc2nc3c(C#N)c(C)c(CCCl)c(Cl)n3c2cc1C
pEC50: < 3.70 | pIC50: 5.48

C[S+](C)C1(c2ccccc2)C(=O)c2ccccc2C1=O
pEC50: < 3.24 | pIC50: < 3.24

COc1ccc(C23OC2Oc2cc(OC4CCCCO4)ccc2C3=O)cc1 (stereo not drawn)
pEC50: < 4.15 | pIC50: 4.34

COc1ccc2c3c(c(C(=O)O)oc13)CCC2
outcome: inactive

O=[N+]([O-])c1ccc(C2SCc3nc4ccccc4n32)cc1 (stereo not drawn)
pEC50: < 4.26 | pIC50: 4.48

Cc1noc2c1N=C(c1cccs1)CC(c1c(Cl)cccc1Cl)C2 (stereo not drawn)
pEC50: < 4.72 | pIC50: < 4.72

COC(=O)C1=C(SC)SC2(C(=O)OC)C3C=C(C)C4C(N13)C42C(=O)OC (stereo not drawn)
pEC50: < 5.44 | pIC50: < 5.44

CC(=O)NC(CCCNC(=O)OCc1ccccc1)C(=O)NCc1ccccc1 (stereo not drawn)
pEC50: < 3.77 | pIC50: < 3.77

O=C(CC1=Nc2nnc(CCCCCCCc3nnc4n3C(=O)C(CC(=O)c3ccccc3)=N4)n2C1=O)c1ccccc1
pEC50: < 5.74 | pIC50: < 5.74

O=C(O)CCC1CCc2cccc3oc(C(=O)O)c1c23 (stereo not drawn)
outcome: inactive

COC(=O)CCc1ccc2c(c1)CC1(Cc3ccccc3C1)C2
pEC50: < 3.70 | pIC50: 3.97

COC(=O)/C(C#N)=C/Sc1ccccc1
outcome: inactive

O=C1C(C(O)(C(F)(F)Cl)C(F)(F)Cl)CCC1C(O)(C(F)(F)Cl)C(F)(F)Cl (stereo not drawn)
pEC50: < 3.70 | pIC50: 5.36

C/C(=N\NS(=O)(=O)c1ccccc1)c1ccc[n+]([O-])n1
outcome: inactive

COc1cc2c(cc1OC)C(Cc1cc(Br)c(OC)c(OC)c1)=[N+](C)CC2
pEC50: < 3.35 | pIC50: 4.47

Cc1ccc(-c2cnc(NC3OC(COC(=O)c4ccccc4)C(OC(=O)c4ccccc4)C(OC(=O)c4ccccc4)C3OC(=O)c3ccccc3)s2)cc1 (stereo not drawn)
pEC50: < 3.70 | pIC50: 4.86

O=C(N/N=C\c1ccncc1)c1ccncc1
pEC50: < 3.70 | pIC50: < 3.70

O/N=C1/C(=C/c2ccc(Br)cc2)CCCC1C(NO)c1ccc(Br)cc1 (stereo not drawn)
pEC50: < 4.68 | pIC50: < 4.68

COc1cc(C(c2cccc3ccccc23)N2C(=O)CCC2C(=O)NCc2ccccc2)cc(OC)c1OC (stereo not drawn)
pEC50: < 3.70 | pIC50: < 3.70

COC(=O)CCC(NC(=O)OC(C)(C)C)C(=O)NC(Cc1ccc([N+](=O)[O-])cc1)C(=O)NC(CCC(=O)OC)C(=O)OC (stereo not drawn) (Boc-Glu(OMe)-[Phe(4-NO2)]-Glu(OMe)-OMe; configuration not given here)
pEC50: < 4.00 | pIC50: 4.32

O=C1C(Cl)C(c2cccc(O)c2)N1n1cnc2ccccc2c1=O (stereo not drawn)
pEC50: < 4.12 | pIC50: < 4.12

O=c1[nH]cnc2c1ncn2[C@@H]1C[C@@H]1CO
pEC50: < 3.70 | pIC50: < 3.70

c1ccc(-c2nnc3nn4c(-c5ccccc5)cnnc4c3c2-c2ccccc2)cc1
pEC50: < 5.03 | pIC50: < 5.03

CC(F)(C(N)=O)C(N)=O
pEC50: < 3.70 | pIC50: < 3.70

CN1COc2c(n(C)c(=O)[nH]c2=O)C1
pEC50: < 3.70 | pIC50: 3.92

CCCCC1OCCOC1C1COCCO1 (stereo not drawn)
pEC50: < 3.71 | pIC50: < 3.71

CCCN(CCC)CCc1ccc(OC2=CCN(C)CC2)cc1
pEC50: < 3.70 | pIC50: 4.06

O=C(O)c1ccccc1C(=O)Cc1ccccc1
pEC50: < 3.70 | pIC50: < 3.70

O=C1CC(CC(O)[C@@H]2CCCC[C@@H]2O)CC(=O)N1c1ccccc1 (stereo partly drawn)
pEC50: < 3.70 | pIC50: < 3.70

CCOC(=O)C(C)(C)Oc1ccc(/C=C/C(=O)c2ccc(Cl)cc2)cc1
pEC50: < 5.00 | pIC50: < 5.00

Cc1ccc(C2(C)CCC(C(C)(C)O)OO2)cc1 (stereo not drawn)
outcome: inactive

CN(C)C1(C#N)CCC2(CC1)OCCO2
outcome: inactive

C/C(=N/NC(=O)CC(=O)N(C(=O)c1ccccc1Cl)c1ccc(C)cc1)c1cc2ccccc2oc1=O
pEC50: < 5.00 | pIC50: < 5.00

CN(/N=C/c1ccccn1)C1=NCCN1
pEC50: < 3.70 | pIC50: < 3.70

CCOC(=O)c1nc2ccccc2nc1Nc1ccc(OC)c(OC)c1
pEC50: < 3.70 | pIC50: < 3.70

NC(=O)c1ncn2c(=O)n(CCCl)nnc12
pEC50: < 2.99 | pIC50: 4.61

COc1ccc(/C=C(/C#N)c2ccc(Cl)cc2)cc1
pEC50: < 3.70 | pIC50: 5.40

COc1ccccc1/C=C(\C#N)c1ccccc1
pEC50: < 4.65 | pIC50: 4.96

CCOC(=O)/C(C#N)=C\C=C1/C=CNC2=NCCN21
pEC50: 4.71 | pIC50: 4.61

CCCCCCCCCCCCCCCCOP(=O)(O)OP(=O)(O)OCC1OC(n2ccc(N)nc2=O)C(O)C1O (stereo not drawn)
pEC50: 3.76 and < 4.00

COC(=O)c1onc(-c2c(OC)cc(OC)cc2OC)c1C(=O)OC
pEC50: < 3.85 | pIC50: 3.94

Cc1ccc(/C(O)=C/c2nc3ccccc3nc2NC23CC4CC(CC(C4)C2)C3)cc1
pEC50: < 3.70 | pIC50: < 3.70

NNC(=O)C(=O)N/N=C(\CCC(=O)Nc1ccc(Cl)cc1)Cc1nc2ccccc2s1
pEC50: < 4.11 | pIC50: 4.84

CC(C)CCCC(C)C1CCC2[C@@H]3CCC4C[C@@H](CCCO)CC[C@]4(C)C3CC[C@]12C (stereo partly drawn)
pEC50: < 5.36 | pIC50: < 5.36

COc1ccc(/C=C/c2nc(=S)[nH][nH]2)cc1
pEC50: < 3.67 | pIC50: < 3.67

O=c1c(OS(=O)(=O)O)c(-c2ccc(OS(=O)(=O)O)c(OS(=O)(=O)O)c2)oc2cc(OS(=O)(=O)O)cc(OS(=O)(=O)O)c12
pEC50: < 4.00 | pIC50: 4.29

COc1ccc(CCN2C(=O)C(=O)c3ccccc32)cc1OC
pEC50: < 4.08 | pIC50: 4.32

Cc1cnc2c(c1C)C(=O)c1ccccc1C2=O
outcome: inactive

Cc1ccnc(NS(=O)(=O)c2ccc(NC(=O)c3ccccc3SC(=O)CCCC[n+]3ccccc3)cc2)n1
pEC50: 4.82 | pIC50: 3.99

CCCCCC(/C=C/[C@@H]1CC(=O)C[C@H]1O[Si](C)(C)C(C)(C)C)OCOCCOC (stereo partly drawn)
pEC50: 5.24 | pIC50: 5.12

CCCCCCCCCCCCCC/C=C\C(CC(=O)O)C(=O)O (stereo not drawn)
pEC50: < 4.82 | pIC50: < 4.82

c1ccc2c3c([nH]c2c1)[C@H]1C2CCCCN2CN1CC3 (stereo partly drawn)
pEC50: < 3.17 | pIC50: 3.67

O=C(N=Nc1c(O)[nH]c2ccccc12)c1ccccc1O
pEC50: < 4.60 | pIC50: 4.81

CN(C)c1ncnc2c1ncn2C1OC(CO)CC1F (stereo not drawn)
pEC50: 3.85 | pIC50: 3.75

Oc1cc(C2OCCCO2)cc(O)c1O
pEC50: < 3.64 | pIC50: 3.72

Nc1ccc(/C=C/c2ccc(N=Nc3ccc(/C=C/c4ccc(N)cc4S(=O)(=O)O)c(S(=O)(=O)O)c3)cc2S(=O)(=O)O)c(S(=O)(=O)O)c1
pEC50: 5.03 | pIC50: 3.78

CSC(=Nc1ccc([N+](=O)[O-])cc1C#N)NC(=O)c1ccccc1
outcome: inactive

CN1C(=O)Cn2c(n[nH]c(=O)c2=O)-c2cc(Cl)ccc21
pEC50: < 3.52 | pIC50: < 3.52
